From US9688710B2, “Inhibitors of sodium glucose cotransporter 1” (LEXICON PHARMACEUTICALS, INC., priority 2012, dated 2017) come the findings set out here.

For assay [1], the target named is Human sodium/glucose co-transporter type 1 (SGLT1) (Homo sapiens (Human), UniProt P13866). The experiment in a line: In vitro human SGLT1 inhibition assay (14C-AMG uptake). In kind it is cell-based. Also on record: key to SGLT1 (human SGLT1 IC50): ***: a value less than 0.01 μM; **: a value less than 0.1 μM; *: a value less than 1 μM; —: a value not measured or exceeding μM. To be noted: HEK293 cells expressing human HA-SGLT1, 14C-AMG uptake. As to the method:
Human sodium/glucose co-transporter type 1 (SGLT1; accession number NP_000334; GI: 4507031) was cloned into pIRESpuro2 vector for mammalian expression (construct: HA-SGLT1-pIRESpuro2).
HEK293 cells were transfected with the human HA-SGLT1-pIRESpuro2 vector and the bulk stable cell line was selected in presence of 0.5 μg/mL of puromycin. Human HA-SGLT1 cells were maintained in DMEM media containing 10% FBS, 1% GPS and 0.5 μg/mL of puromycin.
The HEK293 cells expressing the human HA-SGLT1 were seeded in 384 well plates (30,000 cells/well) in DMEM media containing 10% FBS, 1% GPS and 0.5 μg/mL of puromycin, then incubated overnight at 37 C, 5% CO2. Cells were then washed with uptake buffer (140 mM NaCl, 2 mM KCl, 1 mM CaCl2, 1 mM MgCl2, 10 mM HEPES, 5 mM Tris, 1 mg/mL bovine serum albumin (BSA), pH 7.3). Twenty microliters of uptake buffer with or without testing compounds were added to the cells. Then, 20 microliters of uptake buffer containing ^14C-AMG (100 nCi) were also added to cells. The cell plates were incubated at 37° C., 5% CO2 for 1-2 hours. After washing the cells with uptake buffer, scintillation fluid was added (40 microliters/well) and ^14C-AMG uptake was measured by counting radioactivity using a scintillation coulter (TopCoulter NXT; Packard Instruments).

Assay [2] concerns the target Human sodium/glucose co-transporter type 2 (SGLT2) (Homo sapiens (Human), UniProt P31639). The experiment in a line: In vitro human SGLT2 inhibition assay (14C-AMG uptake). In kind it is cell-based. To be noted: HEK293 cells expressing human HA-SGLT2, 14C-AMG uptake. As to the method:
Human sodium/glucose co-transporter type 2 (SGLT2; accession number P31639; GI:400337) was cloned into pIRESpuro2 vector for mammalian expression (construct: HA-SGLT2-pIRESpuro2).
HEK293 cells were transfected with the human HA-SGLT2-pIRESpuro2 vector and the bulk stable cell line was selected in presence of 0.5 μg/mL of puromycin. Human HA-SGLT2 cells were maintained in DMEM media containing 10% FBS, 1% GPS and 0.5 μg/mL of puromycin.
The HEK293 cells expressing the human HA-SGLT2 were seeded in 384 well plates (30,000 cells/well) in DMEM media containing 10% FBS, 1% GPS and 0.5 μg/mL of puromycin, then incubated overnight at 37 C, 5% CO2. Cells were then washed with uptake buffer (140 mM NaCl, 2 mM KCl, 1 mM CaCl2, 1 mM MgCl2, 10 mM HEPES, 5 mM Tris, 1 mg/mL bovine serum albumin (BSA), pH 7.3). Twenty microliters of uptake buffer with or without testing compounds were added to the cells. Then, 20 microliters of uptake buffer containing ^14C-AMG (100 nCi) were added to the cells. The cell plates were incubated at 37° C., 5% CO2 for 1-2 hours. After washing the cells with uptake buffer, scintillation fluid was added (40 microliters/well) and ^14C-AMG uptake was measured by counting radioactivity using a scintillation coulter (TopCoulter NXT; Packard Instruments).

Sequence of Human sodium/glucose co-transporter type 1 (SGLT1) (P13866 whole entry): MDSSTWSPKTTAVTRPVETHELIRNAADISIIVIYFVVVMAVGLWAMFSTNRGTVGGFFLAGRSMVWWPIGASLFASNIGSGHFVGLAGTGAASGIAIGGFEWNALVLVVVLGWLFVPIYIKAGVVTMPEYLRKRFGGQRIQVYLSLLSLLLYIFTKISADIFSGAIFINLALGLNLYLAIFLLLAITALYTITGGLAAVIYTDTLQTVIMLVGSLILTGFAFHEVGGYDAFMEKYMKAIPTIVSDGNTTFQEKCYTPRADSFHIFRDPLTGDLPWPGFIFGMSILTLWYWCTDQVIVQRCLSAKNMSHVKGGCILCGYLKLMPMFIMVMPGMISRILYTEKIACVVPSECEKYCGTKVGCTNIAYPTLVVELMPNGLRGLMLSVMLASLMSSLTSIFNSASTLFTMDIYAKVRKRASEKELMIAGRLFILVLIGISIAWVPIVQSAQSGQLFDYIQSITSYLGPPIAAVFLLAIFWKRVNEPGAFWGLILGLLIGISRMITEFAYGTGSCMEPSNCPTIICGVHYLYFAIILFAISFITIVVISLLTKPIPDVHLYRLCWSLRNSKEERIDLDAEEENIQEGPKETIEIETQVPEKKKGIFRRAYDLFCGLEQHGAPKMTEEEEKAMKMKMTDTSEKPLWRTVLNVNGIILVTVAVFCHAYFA
Sequence of Human sodium/glucose co-transporter type 2 (SGLT2) (P31639 whole entry): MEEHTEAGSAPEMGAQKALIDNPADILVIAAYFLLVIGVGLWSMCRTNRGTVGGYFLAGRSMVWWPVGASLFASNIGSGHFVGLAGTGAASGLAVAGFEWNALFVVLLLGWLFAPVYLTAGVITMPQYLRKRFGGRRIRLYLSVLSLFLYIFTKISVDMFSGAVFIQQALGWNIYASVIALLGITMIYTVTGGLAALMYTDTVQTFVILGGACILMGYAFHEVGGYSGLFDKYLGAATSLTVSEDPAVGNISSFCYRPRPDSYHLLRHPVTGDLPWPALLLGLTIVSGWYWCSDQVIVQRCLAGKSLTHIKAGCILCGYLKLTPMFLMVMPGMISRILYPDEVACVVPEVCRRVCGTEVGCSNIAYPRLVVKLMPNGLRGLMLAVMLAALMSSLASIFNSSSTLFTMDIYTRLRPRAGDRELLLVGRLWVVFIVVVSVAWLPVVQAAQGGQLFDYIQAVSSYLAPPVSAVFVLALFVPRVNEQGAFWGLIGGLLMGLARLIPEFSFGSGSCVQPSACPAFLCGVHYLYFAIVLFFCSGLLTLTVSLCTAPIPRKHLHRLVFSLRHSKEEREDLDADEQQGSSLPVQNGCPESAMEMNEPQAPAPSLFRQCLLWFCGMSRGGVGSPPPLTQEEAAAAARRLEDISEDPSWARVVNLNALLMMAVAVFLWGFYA

Take `CS[C@H]1O[C@@H](c2ccc(Cl)c(Cc3ccc(OCCNC(=N)N)cc3)c2)[C@H](O)[C@@H](O)[C@@H]1O` [1-(2-(4-(2-chloro-5-((2S,3R,4R,5S,6R)-3,4,5-trihydroxy-6-(methylthio)tetrahydro-2H-pyran-2-yl)benzyl)phenoxy)ethyl)guanidine]: the IC50 in assay [1] and in assay [2] was less than 10 nM in each case. On to `CS[C@H]1O[C@@H](c2ccc(C)c(Cc3ccc(CCCC(=O)NCC(C)(C)C(=O)NC4CCNCC4)cc3)c2)[C@H](O)[C@@H](O)[C@@H]1O` [N-(2,2-dimethyl-3-oxo-3-(piperidin-4-ylamino)propyl)-4-(4-(2-methyl-5-((2S,3R,4R,5S,6R)-3,4,5-trihydroxy-6-(methylthio)tetrahydro-2H-pyran-2-yl)benzyl)phenyl)butanamide], for which the IC50 in assay [1] is less than 100 nM; in assay [2], less than 10 nM. For `CCOc1ccc(Cc2cc([C@@H]3O[C@H](SC)[C@@H](O)[C@H](O)[C@H]3O)ccc2C)cc1` [(2S,3R,4R,5S,6R)-2-(3-(4-ethoxybenzyl)-4-methylphenyl)-6-(methylthio)tetrahydro-2H-pyran-3,4,5-triol], the figures for the IC50 in assay [1] and in assay [2] were less than 100 nM and less than 10 nM, respectively. Regarding `CS[C@H]1O[C@@H](c2ccc(C)c(Cc3ccc(/C=C/CCC(=O)NC(C)(C)C(N)=O)cc3)c2)[C@H](O)[C@@H](O)[C@@H]1O` [(E)-N-(1-amino-2-methyl-1-oxopropan-2-yl)-5-(4-(2-methyl-5-((2S,3R,4R,5S,6R)-3,4,5-trihydroxy-6-(methylthio)tetrahydro-2H-pyran-2-yl)benzyl)phenyl)pent-4-enamide], the 50% inhibitory concentration (IC50) in assay [1] and in assay [2] was less than 10 nM in each case. With `CS[C@H]1O[C@@H](c2ccc(C)c(Cc3ccc(/C=C/CCC(=O)NC(C)(C)C(=O)N4CCN(C)CC4)cc3)c2)[C@H](O)[C@@H](O)[C@@H]1O` [(E)-N-(2-methyl-1-(4-methylpiperazin-1-yl)-1-oxopropan-2-yl)-5-(4-(2-methyl-5-((2S,3R,4R,5S,6R)-3,4,5-trihydroxy-6-(methylthio)tetrahydro-2H-pyran-2-yl)benzyl)phenyl)pent-4-enamide], the half-maximal inhibitory concentration (IC50) in assay [1] and in assay [2] was less than 10 nM throughout. As to `CS[C@H]1O[C@@H](c2ccc(C)c(Cc3ccc(CCCCNC(=O)N4CCN(C)CC4)cc3)c2)[C@H](O)[C@@H](O)[C@@H]1O` [4-methyl-N-(4-(4-(2-methyl-5-((2S,3R,4R,5S,6R)-3,4,5-trihydroxy-6-(methylthio)tetrahydro-2H-pyran-2-yl)benzyl)phenyl)butyl)piperazine-1-carboxamide], the half-inhibitory concentration (IC50) in assay [1] is less than 100 nM; in assay [2] it was less than 10 nM. In the case of `CS[C@H]1O[C@@H](c2ccc(C)c(Cc3ccc(OCC(=O)NC(C)(C)C(N)=O)cc3)c2)[C@H](O)[C@@H](O)[C@@H]1O` [2-methyl-2-(2-(4-(2-methyl-5-((2S,3R,4R,5S,6R)-3,4,5-trihydroxy-6-(methylthio)tetrahydro-2H-pyran-2-yl)benzyl)phenoxy)acetamido)propanamide], the IC50 in assay [1] was less than 100 nM; in assay [2], less than 10 nM. The matching figures for `CCC(=O)NCCCCc1ccc(Cc2cc([C@@H]3O[C@H](SC)[C@@H](O)[C@H](O)[C@H]3O)ccc2C)cc1` [N-(4-(4-(2-methyl-5-((2S,3R,4R,5S,6R)-3,4,5-trihydroxy-6-(methylthio)tetrahydro-2H-pyran-2-yl)benzyl)phenyl)butyl)propionamide]: less than 10 nM and less than 10 nM. The matching figures for `CS[C@H]1O[C@@H](c2ccc(C)c(Cc3ccc(CCCC(=O)NC(C)(C)C(=O)N4CCNCC4)cc3)c2)[C@H](O)[C@@H](O)[C@@H]1O` [N-(2-methyl-1-oxo-1-(piperazin-1-yl)propan-2-yl)-4-(4-(2-methyl-5-((2S,3R,4R,5S,6R)-3,4,5-trihydroxy-6-(methylthio)tetrahydro-2H-pyran-2-yl)benzyl)phenyl)butanamide]: less than 10 nM and less than 10 nM.

`CS[C@H]1O[C@@H](c2ccc(C)c(Cc3ccc(OCCCC(N)=O)cc3)c2)[C@H](O)[C@@H](O)[C@@H]1O` [4-(4-(2-methyl-5-((2S,3R,4R,5S,6R)-3,4,5-trihydroxy-6-(methylthio)tetrahydro-2H-pyran-2-yl)benzyl)phenoxy)butanamide]: the half-maximal inhibitory concentration (IC50) in assay [1] is less than 100 nM; in assay [2] it was less than 10 nM.

As to `CS[C@H]1O[C@@H](c2ccc(C)c(Cc3ccc(CCCCNC(C)(C)C(=O)N4CCN(C)CC4)cc3)c2)[C@H](O)[C@@H](O)[C@@H]1O` [2-methyl-2-((4-(4-(2-methyl-5-((2S,3R,4R,5S,6R)-3,4,5-trihydroxy-6-(methylthio)tetrahydro-2H-pyran-2-yl)benzyl)phenyl)butyl)amino)-1-(4-methylpiperazin-1-yl)propan-1-one], the concentration for half-maximal inhibition (IC50) in assay [1] and in assay [2] was less than 10 nM in each case.

As to `CS[C@H]1O[C@@H](c2ccc(Cl)c(Cc3ccc(OCCCC(=O)N[C@@H](CO)C(N)=O)cc3)c2)[C@H](O)[C@@H](O)[C@@H]1O` [N-((S)-1-amino-3-hydroxy-1-oxopropan-2-yl)-4-(4-(2-chloro-5-((2S,3R,4R,5S,6R)-3,4,5-trihydroxy-6-(methylthio)tetrahydro-2H-pyran-2-yl)benzyl)phenoxy)butanamide], the IC50 in assay [1] is less than 100 nM; in assay [2] it was less than 10 nM.

In the case of `CS[C@H]1O[C@@H](c2ccc(C)c(Cc3ccc(CCC[C@H](N)C(=O)O)cc3)c2)[C@H](O)[C@@H](O)[C@@H]1O` [(S)-2-amino-5-(4-(2-methyl-5-((2S,3R,4R,5S,6R)-3,4,5-trihydroxy-6-(methylthio)tetrahydro-2H-pyran-2-yl)benzyl)phenyl)pentanoic acid], the “SGLT1 (human SGLT1 IC50)” value in assay [1] is “—”. The half-maximal inhibitory concentration (IC50) in assay [2] was less than 100 nM.

Regarding `CS[C@H]1O[C@@H](c2ccc(C)c(Cc3ccc(OCCCC(=O)N[C@@H](CO)C(N)=O)cc3)c2)[C@H](O)[C@@H](O)[C@@H]1O` [N-((S)-1-amino-3-hydroxy-1-oxopropan-2-yl)-4-(4-(2-methyl-5-((2S,3R,4R,5S,6R)-3,4,5-trihydroxy-6-(methylthio)tetrahydro-2H-pyran-2-yl)benzyl)phenoxy)butanamide], the IC50 in assay [1] is less than 100 nM; in assay [2], less than 10 nM.

As to `CS[C@H]1O[C@@H](c2ccc(Cl)c(Cc3ccc(OCC(=O)NC(C)(C)C(=O)N4CCN(C)CC4)cc3)c2)[C@H](O)[C@@H](O)[C@@H]1O` [2-(4-(2-chloro-5-((2S,3R,4R,5S,6R)-3,4,5-trihydroxy-6-(methylthio)tetrahydro-2H-pyran-2-yl)benzyl)phenoxy)-N-(2-methyl-1-(4-methylpiperazin-1-yl)-1-oxopropan-2-yl)acetamide], the half-inhibitory concentration (IC50) in assay [1] was less than 100 nM; in assay [2] it was less than 10 nM. For the molecule `CS[C@H]1O[C@@H](c2ccc(C)c(Cc3ccc(CCCCCN(C[C@H](O)CO)C[C@H](O)CO)cc3)c2)[C@H](O)[C@@H](O)[C@@H]1O` [(2S,3R,4R,5S,6R)-2-(3-(4-(5-(bis((S)-2,3-dihydroxypropyl)amino)pentyl)benzyl)-4-methylphenyl)-6-(methylthio)tetrahydro-2H-pyran-3,4,5-triol], the concentration for half-maximal inhibition (IC50) is less than 100 nM in assay [1] and less than 10 nM in assay [2].

In assay [1], `CS[C@H]1O[C@@H](c2ccc(C)c(Cc3ccc(OCCNC(=O)NC(C)(C)CO)cc3)c2)[C@H](O)[C@@H](O)[C@@H]1O` [1-(1-hydroxy-2-methylpropan-2-yl)-3-(2-(4-(2-methyl-5-((2S,3R,4R,5S,6R)-3,4,5-trihydroxy-6-(methylthio)tetrahydro-2H-pyran-2-yl)benzyl)phenoxy)ethyl)urea] came in with an IC50 of less than 100 nM.
